Experimental data: patent US20090221520A1, “Polyene Antibiotics, Compositions Containing Said Antibiotics, Method and Micro-Organisms Used to Obtain Same and Applications Thereof” (priority 2005, published 2009)

Legend:
[1] = system: Human erythrocytes; assay: Trials of haemolytic activity (toxicity) on human blood; type: cell-based; conditions: for haemolytic activity as a total percentage of haemolysis: 2.5% human blood, 37° C., 30 minutes, Example 1
Protocol: The trials were conducted according to the method described by Gómez-Gómez et al. (Gómez-Gómez, J. M. et al., 1996, Mol. Microbiol. 19: 909-910). The samples of polyenes were first dried and then dissolved in DMSO at an estimated concentration of 10 to 30 mg/mL. Increasing quantities of the different polyenes were taken to a final volume of 100 μL of DMSO and mixed by means of gentle stirring with 500 μL of PBS buffer (Gómez-Gómez, J. M. et al., 1996, cited earlier), containing 2.5% of human blood, or eventually that of horse. After incubation at 37° C. for 30 minutes without stirring, the cells were sedimented by centrifugation and the degree of haemolysis was assessed by means of measuring the absorption at 545 nm. The values corresponding to the total haemolysis were estimated with a suspension of 2.5% of horse blood in distilled water. The human blood (fundamentally erythrocytes) was obtained from local blood banks (Hospital Ramón y Cajal, Madrid); the horse blood came from Oxoid (defibrinated blood). The amphotericin B and the nystatin were obtained from Sigma (catalogue numbers A-4888 and N-3503, respectively) and the pimaricin came from Calbiochem (527962). All these polyenes were tested directly from commercial samples, without any additional purification
In the above experiments it is clear that the modification of the novel amidated polyenes, produced by the genetic recombinants of Streptomyces diastaticus var. 108 gave rise to compounds with high antifungal activity. […] Human erythrocytes were used as cell models for this study (Cybulska B, et al., 2000, Acta Biochim. Pol. 47: 121-131; Gómez-Gómez, J. M. et al., 1996, Mol. Microbiol. 19: 909-910). The haemolytic activity of the novel compounds was assessed (see the section relating to Experimental Methods) against rimocidin and CE-108; amphotericin B and nystatin A were also included. […] It is worth while highlighting the differences in toxicity observed between CE-108 (IIb) and CE-108B (I-1b) with rimocidin (IIa) and rimocidin B (I-1a); while 50% of haemolysis is achieved with 40 to 60 nanomoles for the last two polyenes, a concentration of CE-108 and is amide 6 or 7 times greater is required in order to achieve the same degree of haemolysis.
The trials were conducted on human blood enriched in eritrocytes, as described previously in Example 1.
In order to measure whether other pharmacological properties of the novel tetraenes were different, haemolytic activity trials were conducted and compared with the parent compounds. Human eritrocytes, were used for these tests. It can be pointed out that although the antifungal activities of rimocidin (IIa) and rimocidin C (IIIa) were similar, their toxicities (measured in terms of haemolytic activity) were 2.5-5 times lower for rimocidin C (IIIa) than for rimocidin (IIa).

[2] = system: Penicillium chrysogenum, Candida albicans, Aspergillus niger, Candida krusei and Cryptococcus neoformans; assay: Antifungal activity trials, paper discs on bioassay plates; type: cell-based; conditions: for antifungal activities compared with the end products rimocidin (IIa) and CE-108 (IIb): measured as in example 1, Example 2; for antifungal activity (in words): paper disc trials, Example 1; for increase of antifungal activity by substitution of the free carboxyl- group for the amide- group: versus parent tetraene, all tested fungi, paper discs 9 mm
Protocol: P. chysogenum, C. krusei, A. niger, C. albicans and C. neoformans, fungi used for testing antifungal activity, were grown in MPDA medium (composition: 2% malt extract, 2% glucose, 0.1% Bactopeptone).
(§1) The antifungal activity of the novel amidated tetraenes [rimocidin B (I-1a) and CE-108B (I-1b)] was tested against various fungi: Penicillium chrysogenum, Candida albicans, Aspergillus niger, Candida krusei and Cryptococcus neoformans. Increasing quantities of the different tetraenes, dissolved in methanol, were applied to paper discs (9 mm in diameter); following the application, the discs were dried and placed on bioassay plates on which the corresponding test fungi had previously been spread. The activity of these amidated tetraenes was compared with that of the molecules from which they derived [[…]], showing that the biological activity of the amidated polyenes was substantially greater than that of the corresponding tetraenes that they derived from (FIG. 2) in all tested fungi. In all cases, the substitution of the free carboxyl- group for the amide- group increased the antifungal activity by approximately fourfold.
The antifungal activity of the novel non-carboxylated tetraenes rimocidin C (IIIa) and CE-108C (IIIb) was measured against Penicillium chrysogenum, Candida albicans, Aspergillus niger, Candida krusei and Cryptococcus neoformans, in comparison with that of the native tetraenes rimocidin (IIa) and CE-108 (IIb).

[3] = system: Penicillium chrysogenum; assay: Antifungal activity of pimaricin and AB-400 towards P. chrysogenum; type: cell-based; conditions: for antifungal activity at the tested concentration: P. chrysogenum, a total of 200 ng added in each test
Protocol: RGU5.3. […] RGU5.3 grown in medium with acetate (FIG. 3A) or glucose (FIG. 3B) as source of carbon, respectively. FIG. 3C illustrates the antifungal activity of pimaricin (IVa) and AB-400 (IVb) towards P. chrysogenum; the samples of polyenes applied were (1): commercial pimaricin (Calbiochem […]), (2): total extract of the fermentation culture of S. sp. RGU5.3 grown in glucose medium; (3) purified AB-400 coming from S. sp. RGU5.3 and (4) pimaricin coming from S. sp. RGU5.3; a total of 200 ng. were added in each test.
as §1
The same results were obtained comparing pimaricin (IVa) and its amidated derivative AB-400 (IVb). Both compounds were purified starting from the isolated strain Streptomyces sp. RGU5.3, as indicated in the section on Experimental Methods. […] In this way, using a fermentation culture containing glucose as the source of carbon and not sodium acetate, the pimaricin/AB-400 balance is 70/30; when the same medium is supplemented with sodium acetate, the production profile is reversed, being AB-400 (IVb) the main polyene compound produced (FIG. 3). […]

[4] = Solubility

With “14-decarboxy-14-methyl-rimocidin [Rimocidin C (IIIa)]” the “toxicity (measured in terms of haemolytic activity), times lower than for rimocidin (IIa)” value [1] was 2.5-5 times and the “antifungal activities compared with the end products rimocidin (IIa) and CE-108 (IIb)” value [2] was “not significantly different”.
For “14-decarboxy-methyl-CE-108 [CE-108C (IIIb)]”, the “antifungal activities compared with the end products rimocidin (IIa) and CE-108 (IIb)” value [2] was “not significantly different”.
With `C[C@@H]1C\C=C/C=C\C=C/C=C[C@H](O[C@@H]2O[C@H](C)[C@@H](O)[C@H](N)[C@@H]2O)C[C@@H]2O[C@](O)(C[C@@H](O)C[C@H]3O[C@@H]3/C=C\C(=O)O1)C[C@H](O)[C@H]2C(N)=O` [AB-400 (IVb), AB-400] the “haemolytic activity of AB-400 compared with commercial pimaricin” value [1] was “did not show significant differences”, the “antifungal activity at the tested concentration” value [3] was “highly active” and the “difference in antifungal activity between AB-400 and pimaricin” value ([3]; Penicillium chrysogenum) was ~1 order of magnitude. The “solubility compared with the parent / non-amidated compound” value [4] was “increase in their solubility”.
With `CCC1C(=O)O[C@H](C)C/C=C/C=C/C=C/C=C/[C@H](OC2OC(C)C(O)C(N)C2O)C[C@@H]2O[C@](O)(CC(O)CCCC(=O)CC1O)C[C@H](O)[C@H]2C(=O)O` (stereo partly drawn) [CE-108 (IIb), CE-108] the “concentration required to achieve the same degree (50%) of haemolysis, times greater than for rimocidin and rimocidin B” value [1] was 6 or 7 times and the “antifungal activity (in words)” value [2] was “low”.
With `C[C@@H]1[C@H](O)[C@@H](C)/C=C/C=C/CC/C=C/C=C/C=C/C=C/C(O[C@H]2O[C@H](C)[C@@H](O)[C@H](N)[C@@H]2O)CC2O[C@](O)(CC(O)C(O)CCC(O)CC(O)CC(O)CC(=O)O[C@H]1C)CC(O)C2C(=O)O` (stereo partly drawn) [Nystatin A, nystatin A] the “haemolytic activity as a total percentage of haemolysis” value ([1]; 20 nanomoles of polyene) was 2.20%, the “haemolytic activity as a total percentage of haemolysis” value ([1]; 40 nanomoles of polyene) was 49.53% and the “haemolytic activity as a total percentage of haemolysis” value ([1]; 60 nanomoles of polyene) was 76.80%. For the same molecule, the “haemolytic activity as a total percentage of haemolysis” value ([1]; 80 nanomoles of polyene) was 92.79% and the “haemolytic activity as a total percentage of haemolysis” value ([1]; 100 nanomoles of polyene) was 100.00%.
For `CCC[C@@H]1C/C=C/C=C/C=C/C=C/[C@H](O[C@@H]2O[C@H](C)[C@@H](O)[C@H](N)[C@@H]2O)C[C@@H]2O[C@](O)(C[C@@H](O)CCCC(=O)C[C@@H](O)[C@H](CC)C(=O)O1)C[C@H](O)[C@H]2C(=O)O` [Rimocidin (IIa), rimocidin], the “quantity with which 50% of haemolysis is achieved” value [1] was 40 to 60 nmol.
In the case of `C[C@@H]1C/C=C/C=C/C=C/C=C/[C@H](O[C@@H]2O[C@H](C)[C@@H](O)[C@H](N)[C@@H]2O)C[C@@H]2O[C@](O)(C[C@@H](O)C[C@H]3O[C@@H]3/C=C/C(=O)O1)C[C@H](O)[C@H]2C(=O)O` [pimaricin (IVa), pimaricin], the “antifungal activity at the tested concentration” value [3] is reported as “no antifungal activity was observed”.
For CE-108B [CE-108B (I-1b)], the “concentration required to achieve the same degree (50%) of haemolysis, times greater than for rimocidin and rimocidin B” value [1] was 6 or 7 times, the “haemolytic activity compared with the corresponding tetraene it derived from” value [1] was “not significantly different” and the “haemolytic activity, times lower than that of rimocidin” value [1] was 6 or 7 times. The “antifungal activity (in words)” value [2] was “almost as high as that of rimocidin” and the “increase of antifungal activity by substitution of the free carboxyl- group for the amide- group” value [2] was “approximately fourfold”.
For rimocidin B [Rimocidin B (I-1a)], the “haemolytic activity compared with the corresponding tetraene it derived from” value [1] was “not significantly different”, the “quantity with which 50% of haemolysis is achieved” value [1] was 40 to 60 nmol and the “increase of antifungal activity by substitution of the free carboxyl- group for the amide- group” value [2] was “approximately fourfold”.
